In US7994140B2, “Classes of compounds that interact with GPCRs” (Alchemia Limited, priority 2002, dated 2011):

Tests used:
SST5 = target: T1, SST5 (Homo sapiens, UniProt P35346); assay: GPCR radioligand binding (RLB) assay, somatostatin SST5, [125I]SST-14; conditions: 10 micromolar compound; recombinant human receptor membranes (HEK 293)
T1 construct: purchased Perkin Elmer BioSignal; host or cells: HEK 293
Method in brief: (§1)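 Membranes from HEK 293 cells expressing the recombinant human receptor were equilibrated with [125I]SST-14 (SST5) or [125I]NDP-αMSH (MC4), then compound added for an optimized incubation. Bound ligand separated by filtration on PEI-coated glass fiber and counted by liquid scintillation.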

MC4 = target: T2, MC4 (Homo sapiens, UniProt P32245); assay: GPCR radioligand binding (RLB) assay, melanocortin MC4, [125I]NDP-αMSH; conditions: 10 micromolar compound; recombinant human receptor membranes (HEK 293)
T2 construct: purchased Perkin Elmer BioSignal; host or cells: HEK 293
Method in brief: as §1

T1 sequence (P35346 whole entry): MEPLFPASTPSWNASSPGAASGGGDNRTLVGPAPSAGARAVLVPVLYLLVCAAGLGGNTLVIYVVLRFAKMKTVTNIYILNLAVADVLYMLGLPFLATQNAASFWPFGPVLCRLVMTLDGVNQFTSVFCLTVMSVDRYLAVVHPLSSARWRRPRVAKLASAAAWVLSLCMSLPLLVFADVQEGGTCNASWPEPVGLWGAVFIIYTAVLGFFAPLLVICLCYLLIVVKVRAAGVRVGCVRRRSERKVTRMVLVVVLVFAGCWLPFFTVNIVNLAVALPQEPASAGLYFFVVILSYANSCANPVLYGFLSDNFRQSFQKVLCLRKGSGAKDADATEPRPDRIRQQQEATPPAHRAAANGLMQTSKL
T2 sequence (P32245 whole entry): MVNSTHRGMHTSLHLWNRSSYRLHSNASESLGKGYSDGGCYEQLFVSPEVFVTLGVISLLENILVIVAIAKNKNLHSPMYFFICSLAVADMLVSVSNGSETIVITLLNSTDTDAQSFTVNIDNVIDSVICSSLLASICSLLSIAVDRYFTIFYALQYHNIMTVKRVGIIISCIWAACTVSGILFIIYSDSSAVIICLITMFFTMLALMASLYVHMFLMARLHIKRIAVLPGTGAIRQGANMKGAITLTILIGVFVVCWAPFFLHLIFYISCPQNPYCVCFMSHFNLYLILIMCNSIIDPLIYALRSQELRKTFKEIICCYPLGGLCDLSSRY

Row | Structure (SMILES) | SST5 inhibition at 10 micromolar (SST5) | MC4 inhibition at 10 micromolar (MC4)
1 | CSC1OC(COCc2ccccc2)C(O)C(OCc2ccc(-c3ccccc3)cc2)C1NC(=O)CCN (centres unmarked) [Compound 169] | + (Indicates inhibition greater than . . . 50%) | + (Indicates inhibition greater than . . . 50%)
2 | CSC1OC(COCc2ccccc2)C(O)C(OCc2ccc(-c3ccccc3)cc2)C1NC(=O)CCNC(=N)N (centres unmarked) [Compound 170] | + (Indicates inhibition greater than . . . 50%) | + (Indicates inhibition greater than . . . 50%)
3 | CSC1OC(COCc2ccccc2)C(O)C(OCc2ccc(-c3ccccc3)cc2)C1NC(=O)CCCN (centres unmarked) [Compound 171] | + (Indicates inhibition greater than . . . 50%) | + (Indicates inhibition greater than . . . 50%)
4 | CSC1OC(COCc2ccccc2)C(O)C(OCc2ccc(-c3ccccc3)cc2)C1NC(=O)CCCNC(=N)N (centres unmarked) [Compound 172] | + (Indicates inhibition greater than . . . 50%) | + (Indicates inhibition greater than . . . 50%)
5 | CSC1OC(COCc2ccc(Cl)cc2)C(O)C(OCc2ccc(-c3ccccc3)cc2)C1NC(=O)CN (centres unmarked) [Compound 173] | + (Indicates inhibition greater than . . . 50%) | + (Indicates inhibition greater than . . . 50%)
6 | CSC1OC(COCc2ccc(Cl)cc2)C(O)C(OCc2ccc(-c3ccccc3)cc2)C1NC(=O)CNC(=N)N (centres unmarked) [Compound 174] | + (Indicates inhibition greater than . . . 50%) | + (Indicates inhibition greater than . . . 50%)
7 | CSC1OC(COCc2ccc(Cl)cc2)C(O)C(OCc2ccc(-c3ccccc3)cc2)C1NC(=O)CCN (centres unmarked) [Compound 175] | + (Indicates inhibition greater than . . . 50%) | + (Indicates inhibition greater than . . . 50%)
8 | CSC1OC(COCc2ccc(Cl)cc2)C(O)C(OCc2ccc(-c3ccccc3)cc2)C1NC(=O)CCNC(=N)N (centres unmarked) [Compound 176] | + (Indicates inhibition greater than . . . 50%) | + (Indicates inhibition greater than . . . 50%)
9 | CSC1OC(COCc2ccc(Cl)cc2)C(O)C(OCc2ccc(-c3ccccc3)cc2)C1NC(=O)CCCN (centres unmarked) [Compound 177] | + (Indicates inhibition greater than . . . 50%) | + (Indicates inhibition greater than . . . 50%)
10 | CSC1OC(COCc2ccc(Cl)cc2)C(O)C(OCc2ccc(-c3ccccc3)cc2)C1NC(=O)CCCNC(=N)N (centres unmarked) [Compound 178] | + (Indicates inhibition greater than . . . 50%) | + (Indicates inhibition greater than . . . 50%)
11 | CSC1OC(COCc2ccc(-c3ccccc3)cc2)C(O)C(OCc2ccc(-c3ccccc3)cc2)C1NC(=O)CN (centres unmarked) [Compound 179] | + (Indicates inhibition greater than . . . 50%) | + (Indicates inhibition greater than . . . 50%)
12 | CSC1OC(COCc2ccc(-c3ccccc3)cc2)C(O)C(OCc2ccc(-c3ccccc3)cc2)C1NC(=O)CNC(=N)N (centres unmarked) [Compound 180] | + (Indicates inhibition greater than . . . 50%) | + (Indicates inhibition greater than . . . 50%)
13 | CSC1OC(COCc2ccc(-c3ccccc3)cc2)C(O)C(OCc2ccc(-c3ccccc3)cc2)C1NC(=O)CCN (centres unmarked) [Compound 181] | + (Indicates inhibition greater than . . . 50%) | + (Indicates inhibition greater than . . . 50%)
14 | CSC1OC(COCc2ccc(-c3ccccc3)cc2)C(O)C(OCc2ccc(-c3ccccc3)cc2)C1NC(=O)CCNC(=N)N (centres unmarked) [Compound 182] | + (Indicates inhibition greater than . . . 50%) | + (Indicates inhibition greater than . . . 50%)
15 | CSC1OC(COCc2ccc(-c3ccccc3)cc2)C(O)C(OCc2ccc(-c3ccccc3)cc2)C1NC(=O)CCCN (centres unmarked) [Compound 183] | + (Indicates inhibition greater than . . . 50%) | + (Indicates inhibition greater than . . . 50%)
16 | CSC1OC(COCc2ccc3ccccc3c2)C(O)C(OCc2ccc(-c3ccccc3)cc2)C1NC(=O)CNC(=N)N (centres unmarked) [Compound 186] | + (Indicates inhibition greater than . . . 50%) | + (Indicates inhibition greater than . . . 50%)
17 | CSC1OC(COCc2ccc3ccccc3c2)C(O)C(OCc2ccc(-c3ccccc3)cc2)C1NC(=O)CCN (centres unmarked) [Compound 187] | + (Indicates inhibition greater than . . . 50%) | + (Indicates inhibition greater than . . . 50%)
18 | CSC1OC(COCc2ccc3ccccc3c2)C(O)C(OCc2ccc(-c3ccccc3)cc2)C1NC(=O)CCNC(=N)N (centres unmarked) [Compound 188] | + (Indicates inhibition greater than . . . 50%) | + (Indicates inhibition greater than . . . 50%)
19 | CSC1OC(COCc2ccc3ccccc3c2)C(O)C(OCc2ccc(-c3ccccc3)cc2)C1NC(=O)CCCN (centres unmarked) [Compound 189] | + (Indicates inhibition greater than . . . 50%) | + (Indicates inhibition greater than . . . 50%)

Row | Structure (SMILES) | SST5 inhibition at 10 micromolar (SST5) | MC4 inhibition at 10 micromolar (MC4)
20 | CSC1OC(COCc2ccc3ccccc3c2)C(O)C(OCc2ccc(-c3ccccc3)cc2)C1NC(=O)CCCNC(=N)N (centres unmarked) [Compound 190] | + (Indicates inhibition greater than . . . 50%) | + (Indicates inhibition greater than . . . 50%)
21 | CSC1OC(COCc2ccccc2)C(O)C(OCc2ccc3ccccc3c2)C1NC(=O)CN (centres unmarked) [Compound 191] | + (Indicates inhibition greater than . . . 50%) | + (Indicates inhibition greater than . . . 50%)
22 | CSC1OC(COCc2ccccc2)C(O)C(OCc2ccc3ccccc3c2)C1NC(=O)CNC(=N)N (centres unmarked) [Compound 192] | + (Indicates inhibition greater than . . . 50%) | + (Indicates inhibition greater than . . . 50%)
23 | CSC1OC(COCc2ccccc2)C(O)C(OCc2ccc3ccccc3c2)C1NC(=O)CCNC(=N)N (centres unmarked) [Compound 194] | + (Indicates inhibition greater than . . . 50%) | + (Indicates inhibition greater than . . . 50%)
24 | CSC1OC(COCc2ccccc2)C(O)C(OCc2ccc3ccccc3c2)C1NC(=O)CCCN (centres unmarked) [Compound 195] | + (Indicates inhibition greater than . . . 50%) | + (Indicates inhibition greater than . . . 50%)
25 | CSC1OC(COCc2ccccc2)C(O)C(OCc2ccc3ccccc3c2)C1NC(=O)CCCNC(=N)N (centres unmarked) [Compound 196] | + (Indicates inhibition greater than . . . 50%) | + (Indicates inhibition greater than . . . 50%)
26 | CSC1OC(COCc2ccc(Cl)cc2)C(O)C(OCc2ccc3ccccc3c2)C1NC(=O)CN (centres unmarked) [Compound 197] | + (Indicates inhibition greater than . . . 50%) | + (Indicates inhibition greater than . . . 50%)
27 | CSC1OC(COCc2ccc(Cl)cc2)C(O)C(OCc2ccc3ccccc3c2)C1NC(=O)CNC(=N)N (centres unmarked) [Compound 198] | + (Indicates inhibition greater than . . . 50%) | + (Indicates inhibition greater than . . . 50%)
28 | CSC1OC(COCc2ccc(Cl)cc2)C(O)C(OCc2ccc3ccccc3c2)C1NC(=O)CCN (centres unmarked) [Compound 199] | + (Indicates inhibition greater than . . . 50%) | + (Indicates inhibition greater than . . . 50%)
29 | CSC1OC(COCc2ccc(Cl)cc2)C(O)C(OCc2ccc3ccccc3c2)C1NC(=O)CCNC(=N)N (centres unmarked) [Compound 200] | + (Indicates inhibition greater than . . . 50%) | + (Indicates inhibition greater than . . . 50%)
30 | CSC1OC(COCc2ccc(Cl)cc2)C(O)C(OCc2ccc3ccccc3c2)C1NC(=O)CCCN (centres unmarked) [Compound 201] | + (Indicates inhibition greater than . . . 50%) | + (Indicates inhibition greater than . . . 50%)
31 | CSC1OC(COCc2ccc(Cl)cc2)C(O)C(OCc2ccc3ccccc3c2)C1NC(=O)CCCNC(=N)N (centres unmarked) [Compound 202] | + (Indicates inhibition greater than . . . 50%) | + (Indicates inhibition greater than . . . 50%)
32 | CSC1OC(COCc2ccc(-c3ccccc3)cc2)C(O)C(OCc2ccc3ccccc3c2)C1NC(=O)CN (centres unmarked) [Compound 203] | + (Indicates inhibition greater than . . . 50%) | + (Indicates inhibition greater than . . . 50%)
33 | CSC1OC(COCc2ccc(-c3ccccc3)cc2)C(O)C(OCc2ccc3ccccc3c2)C1NC(=O)CNC(=N)N (centres unmarked) [Compound 204] | + (Indicates inhibition greater than . . . 50%) | + (Indicates inhibition greater than . . . 50%)
34 | CSC1OC(COCc2ccc(-c3ccccc3)cc2)C(O)C(OCc2ccc3ccccc3c2)C1NC(=O)CCN (centres unmarked) [Compound 205] | + (Indicates inhibition greater than . . . 50%) | + (Indicates inhibition greater than . . . 50%)
35 | CSC1OC(COCc2ccc(-c3ccccc3)cc2)C(O)C(OCc2ccc3ccccc3c2)C1NC(=O)CCNC(=N)N (centres unmarked) [Compound 206] | + (Indicates inhibition greater than . . . 50%) | + (Indicates inhibition greater than . . . 50%)
36 | CSC1OC(COCc2ccc(-c3ccccc3)cc2)C(O)C(OCc2ccc3ccccc3c2)C1NC(=O)CCCN (centres unmarked) [Compound 207] | + (Indicates inhibition greater than . . . 50%) | + (Indicates inhibition greater than . . . 50%)
37 | CSC1OC(COCc2ccc(-c3ccccc3)cc2)C(O)C(OCc2ccc3ccccc3c2)C1NC(=O)CCCNC(=N)N (centres unmarked) [Compound 208] | + (Indicates inhibition greater than . . . 50%) | + (Indicates inhibition greater than . . . 50%)
